From ChEMBL document CHEMBL2169851, “Imidazopyridazinones as novel PDE7 inhibitors: SAR and in vivo studies in Parkinson's disease model” (Bioorg Med Chem Lett, 2012)
Values belong to the compound of their own block, whether it stands above or below them. Activity calls are given as the source filed them. No cut-off for these calls is given here.

How the values were obtained:
[1] = molecular target: T1, High affinity 3',5'-cyclic-AMP phosphodiesterase 7A (Homo sapiens, UniProt Q13946); test: Inhibition of cloned human recombinant PDE7A assessed as [3H]cAMP hydrolysis by radiometric assay
Mus musculus [2] = test: Neurotoxicity in sc dosed C57BL/6 mouse assessed as induction of catalepsy measured at 0.5 to 1 hr; assay type: toxicity, organism-based; conditions: in vivo
Mus musculus [3] = test: Antiparkinsonian activity in C57BL/6 mouse assessed as decrease in MPTP-induced vertical rearing behavior impairment at 12.5 mg/kg, ip administered 30 mins on day 7 post MPTP challenge; assay type: functional, organism-based; design: dose 12.5 mg/kg
[4] = molecular target: T1, High affinity 3',5'-cyclic-AMP phosphodiesterase 7A; test: Inhibition of cloned human recombinant PDE7A assessed as [3H]cAMP hydrolysis at 1 uM by radiometric assay
[5] = Metabolic stability in human liver microsomes assessed as compound remaining after 60 mins; assay type: ADME, Microsome; conditions: read-out: Stability
[6] = Drug uptake in C57 mouse brain at 10 mg/kg, ip after 30 mins; assay type: ADME, organism-based; design: dose 10 mg/kg, route intraperitoneal; conditions: read-out: Drug uptake
[7] = Ratio of drug level in brain to plasma in C57 mouse at 10 mg/kg, ip after 30 mins; assay type: ADME, organism-based; design: dose 10 mg/kg, route intraperitoneal; conditions: read-out: BPR
[8] = molecular target: High affinity cAMP-specific and IBMX-insensitive 3',5'-cyclic phosphodiesterase 8A (Homo sapiens) (UniProt O60658); test: Inhibition of cloned human recombinant PDE8A1 assessed as [3H]cAMP hydrolysis at 10 uM by radiometric assay
[9] = molecular target: Dual specificity calcium/calmodulin-dependent 3',5'-cyclic nucleotide phosphodiesterase 1A (Homo sapiens) (UniProt P54750); test: Inhibition of cloned human recombinant PDE1A assessed as [3H]cAMP hydrolysis at 10 uM by radiometric assay
[10] = molecular target: cGMP-inhibited 3',5'-cyclic phosphodiesterase 3A (Homo sapiens) (UniProt Q14432); test: Inhibition of cloned human recombinant PDE3A assessed as [3H]cAMP hydrolysis at 10 uM by radiometric assay
[11] = Tmax in C57 mouse at 10 mg/kg, ip; assay type: ADME, organism-based; design: dose 10 mg/kg, route intraperitoneal; conditions: in vivo
[12] = molecular target: Dual 3',5'-cyclic-AMP and -GMP phosphodiesterase 11A (Homo sapiens) (UniProt Q9HCR9); test: Inhibition of cloned human recombinant PDE11A assessed as [3H]cAMP hydrolysis at 10 uM by radiometric assay
[13] = Cmax in C57 mouse at 10 mg/kg, ip; assay type: ADME, organism-based; design: dose 10 mg/kg, route intraperitoneal; conditions: in vivo
[14] = molecular target: 3',5'-cyclic-AMP phosphodiesterase 4D (Homo sapiens, UniProt Q08499); test: Inhibition of cloned human recombinant PDE4D assessed as [3H]cAMP hydrolysis at 10 uM by radiometric assay
[15] = Metabolic stability in mouse liver microsomes assessed as compound remaining after 60 mins; assay type: ADME, Microsome; conditions: read-out: Stability
[16] = Plasma concentration in C57 mouse at 10 mg/kg, ip after 30 mins; assay type: ADME, organism-based; design: dose 10 mg/kg, route intraperitoneal
[17] = molecular target: cGMP-dependent 3',5'-cyclic phosphodiesterase (Homo sapiens) (UniProt O00408); test: Inhibition of cloned human recombinant PDE2A assessed as [3H]cAMP hydrolysis at 10 uM by radiometric assay
[18] = AUC in C57 mouse at 10 mg/kg, ip; assay type: ADME, organism-based; design: dose 10 mg/kg, route intraperitoneal; conditions: plasma
[19] = molecular target: cGMP-specific 3',5'-cyclic phosphodiesterase (Homo sapiens) (UniProt O76074); test: Inhibition of cloned human recombinant PDE5A assessed as [3H]cAMP hydrolysis at 10 uM by radiometric assay
[20] = molecular target: cAMP and cAMP-inhibited cGMP 3',5'-cyclic phosphodiesterase 10A (Homo sapiens) (UniProt Q9Y233); test: Inhibition of cloned human recombinant PDE10A assessed as [3H]cAMP hydrolysis at 10 uM by radiometric assay
[21] = molecular target: 3',5'-cyclic-AMP phosphodiesterase 7B (Homo sapiens, UniProt Q9NP56); test: Inhibition of cloned human recombinant PDE7B assessed as [3H]cAMP hydrolysis by radiometric assay
[22] = Metabolic stability in rat liver microsomes assessed as compound remaining after 60 mins; assay type: ADME, Microsome; conditions: read-out: Stability
[23] = molecular target: High affinity cGMP-specific 3',5'-cyclic phosphodiesterase 9A (Homo sapiens) (UniProt O76083); test: Inhibition of cloned human recombinant PDE9A2 assessed as [3H]cAMP hydrolysis at 10 uM by radiometric assay
Mus musculus [24] = test: Antiparkinsonian activity in C57BL/6 mouse assessed as decrease in MPTP-induced vertical rearing behavior impairment at 15 mg/kg, sc administered 30 mins on day 7 post MPTP challenge; assay type: functional, organism-based; design: dose 15 mg/kg

T1 sequence (Q13946 whole entry): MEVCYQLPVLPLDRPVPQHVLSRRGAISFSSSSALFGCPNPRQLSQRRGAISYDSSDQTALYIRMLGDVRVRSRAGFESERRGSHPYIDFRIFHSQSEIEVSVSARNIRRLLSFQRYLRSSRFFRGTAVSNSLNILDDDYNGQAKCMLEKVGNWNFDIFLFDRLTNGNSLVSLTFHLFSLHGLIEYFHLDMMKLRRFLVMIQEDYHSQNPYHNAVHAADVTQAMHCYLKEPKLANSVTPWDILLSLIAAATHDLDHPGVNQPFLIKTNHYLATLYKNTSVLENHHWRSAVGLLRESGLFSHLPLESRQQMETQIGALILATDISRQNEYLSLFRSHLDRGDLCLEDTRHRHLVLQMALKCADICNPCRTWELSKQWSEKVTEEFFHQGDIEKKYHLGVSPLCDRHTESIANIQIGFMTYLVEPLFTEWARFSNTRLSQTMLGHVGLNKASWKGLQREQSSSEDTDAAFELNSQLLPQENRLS
Dual 3',5'-cyclic-AMP and -GMP phosphodiesterase 11A (Homo sapiens), sequence (Q9HCR9 whole entry, looked up): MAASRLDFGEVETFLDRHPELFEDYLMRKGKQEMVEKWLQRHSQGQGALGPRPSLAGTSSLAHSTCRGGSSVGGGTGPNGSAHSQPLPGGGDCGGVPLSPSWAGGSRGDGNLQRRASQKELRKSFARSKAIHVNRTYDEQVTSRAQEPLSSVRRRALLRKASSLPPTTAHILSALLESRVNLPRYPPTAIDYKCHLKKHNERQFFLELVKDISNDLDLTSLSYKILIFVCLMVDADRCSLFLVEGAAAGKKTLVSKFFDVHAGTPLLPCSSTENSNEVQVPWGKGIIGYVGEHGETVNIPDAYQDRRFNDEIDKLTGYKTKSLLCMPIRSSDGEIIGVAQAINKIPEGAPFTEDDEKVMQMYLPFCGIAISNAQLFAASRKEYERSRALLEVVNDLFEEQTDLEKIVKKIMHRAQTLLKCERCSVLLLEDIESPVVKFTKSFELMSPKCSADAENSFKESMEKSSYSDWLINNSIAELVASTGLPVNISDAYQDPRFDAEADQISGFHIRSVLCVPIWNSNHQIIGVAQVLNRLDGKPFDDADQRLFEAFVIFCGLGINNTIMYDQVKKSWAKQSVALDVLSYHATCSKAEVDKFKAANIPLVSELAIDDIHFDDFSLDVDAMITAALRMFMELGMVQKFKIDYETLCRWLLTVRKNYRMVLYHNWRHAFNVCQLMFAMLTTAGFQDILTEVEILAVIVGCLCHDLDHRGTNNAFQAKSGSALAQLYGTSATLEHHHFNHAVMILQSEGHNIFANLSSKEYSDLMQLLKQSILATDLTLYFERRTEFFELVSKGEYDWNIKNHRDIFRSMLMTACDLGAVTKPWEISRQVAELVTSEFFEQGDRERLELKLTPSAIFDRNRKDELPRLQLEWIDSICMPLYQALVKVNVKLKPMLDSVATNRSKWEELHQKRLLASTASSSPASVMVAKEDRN
cGMP-dependent 3',5'-cyclic phosphodiesterase (Homo sapiens), sequence (O00408 whole entry): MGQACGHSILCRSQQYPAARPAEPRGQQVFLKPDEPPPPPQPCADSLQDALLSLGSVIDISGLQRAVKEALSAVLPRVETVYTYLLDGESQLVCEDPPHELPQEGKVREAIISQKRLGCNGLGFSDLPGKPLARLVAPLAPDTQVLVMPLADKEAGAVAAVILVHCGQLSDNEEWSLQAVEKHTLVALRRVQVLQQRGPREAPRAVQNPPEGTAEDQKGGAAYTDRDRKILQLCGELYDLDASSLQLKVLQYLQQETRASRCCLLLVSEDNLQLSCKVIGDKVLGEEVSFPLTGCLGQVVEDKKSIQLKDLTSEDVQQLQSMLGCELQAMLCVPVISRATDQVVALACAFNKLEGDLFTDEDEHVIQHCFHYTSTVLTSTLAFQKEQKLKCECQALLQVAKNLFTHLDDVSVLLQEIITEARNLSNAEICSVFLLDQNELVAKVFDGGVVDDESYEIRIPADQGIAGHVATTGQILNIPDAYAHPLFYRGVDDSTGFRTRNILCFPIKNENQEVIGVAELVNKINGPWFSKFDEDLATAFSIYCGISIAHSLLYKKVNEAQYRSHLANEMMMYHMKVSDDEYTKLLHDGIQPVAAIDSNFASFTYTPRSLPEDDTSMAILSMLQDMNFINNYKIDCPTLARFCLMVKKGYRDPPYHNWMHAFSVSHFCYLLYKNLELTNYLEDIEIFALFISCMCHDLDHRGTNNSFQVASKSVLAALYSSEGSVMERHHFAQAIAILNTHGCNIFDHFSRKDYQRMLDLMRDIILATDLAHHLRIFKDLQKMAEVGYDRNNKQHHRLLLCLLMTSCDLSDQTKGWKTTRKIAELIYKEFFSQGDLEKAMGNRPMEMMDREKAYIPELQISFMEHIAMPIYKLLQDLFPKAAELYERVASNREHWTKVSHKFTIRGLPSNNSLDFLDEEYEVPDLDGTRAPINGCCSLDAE
Dual specificity calcium/calmodulin-dependent 3',5'-cyclic nucleotide phosphodiesterase 1A (Homo sapiens), sequence (P54750 whole entry): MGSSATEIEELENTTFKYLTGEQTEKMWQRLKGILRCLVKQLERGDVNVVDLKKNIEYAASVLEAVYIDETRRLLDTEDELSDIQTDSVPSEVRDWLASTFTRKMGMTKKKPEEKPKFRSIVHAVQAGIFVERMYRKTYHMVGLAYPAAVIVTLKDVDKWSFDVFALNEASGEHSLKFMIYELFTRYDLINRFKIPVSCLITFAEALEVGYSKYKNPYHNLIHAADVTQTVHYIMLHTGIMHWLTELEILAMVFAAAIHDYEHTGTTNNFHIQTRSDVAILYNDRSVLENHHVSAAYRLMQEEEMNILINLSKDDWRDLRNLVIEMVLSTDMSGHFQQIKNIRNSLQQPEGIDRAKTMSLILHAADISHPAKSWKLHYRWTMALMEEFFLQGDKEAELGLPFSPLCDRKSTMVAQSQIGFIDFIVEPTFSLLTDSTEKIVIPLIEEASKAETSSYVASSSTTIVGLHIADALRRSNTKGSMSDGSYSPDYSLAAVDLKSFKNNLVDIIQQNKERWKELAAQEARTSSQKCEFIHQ
3',5'-cyclic-AMP phosphodiesterase 4D, sequence (Q08499 whole entry): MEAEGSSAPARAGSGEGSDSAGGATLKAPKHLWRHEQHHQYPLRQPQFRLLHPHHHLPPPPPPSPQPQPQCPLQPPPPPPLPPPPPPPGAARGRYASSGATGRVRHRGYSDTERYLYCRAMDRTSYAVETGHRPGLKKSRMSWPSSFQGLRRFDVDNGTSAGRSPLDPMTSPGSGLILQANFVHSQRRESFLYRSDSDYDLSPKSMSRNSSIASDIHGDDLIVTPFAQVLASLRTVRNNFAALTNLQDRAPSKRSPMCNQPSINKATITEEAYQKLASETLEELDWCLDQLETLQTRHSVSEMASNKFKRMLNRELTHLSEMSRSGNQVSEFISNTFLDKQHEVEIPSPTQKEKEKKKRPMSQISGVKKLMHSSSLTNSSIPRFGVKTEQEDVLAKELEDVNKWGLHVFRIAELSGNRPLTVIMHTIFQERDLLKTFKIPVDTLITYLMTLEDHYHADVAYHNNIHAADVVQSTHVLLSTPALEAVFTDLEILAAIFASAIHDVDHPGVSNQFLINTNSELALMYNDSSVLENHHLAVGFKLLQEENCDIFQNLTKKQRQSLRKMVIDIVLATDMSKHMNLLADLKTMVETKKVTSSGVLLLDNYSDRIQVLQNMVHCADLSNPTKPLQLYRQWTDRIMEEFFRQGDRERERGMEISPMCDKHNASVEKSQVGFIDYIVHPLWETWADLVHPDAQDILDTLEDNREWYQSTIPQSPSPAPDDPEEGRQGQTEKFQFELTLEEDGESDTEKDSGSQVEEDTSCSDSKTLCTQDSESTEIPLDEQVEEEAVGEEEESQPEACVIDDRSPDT
High affinity cAMP-specific and IBMX-insensitive 3',5'-cyclic phosphodiesterase 8A (Homo sapiens), sequence (O60658 whole entry): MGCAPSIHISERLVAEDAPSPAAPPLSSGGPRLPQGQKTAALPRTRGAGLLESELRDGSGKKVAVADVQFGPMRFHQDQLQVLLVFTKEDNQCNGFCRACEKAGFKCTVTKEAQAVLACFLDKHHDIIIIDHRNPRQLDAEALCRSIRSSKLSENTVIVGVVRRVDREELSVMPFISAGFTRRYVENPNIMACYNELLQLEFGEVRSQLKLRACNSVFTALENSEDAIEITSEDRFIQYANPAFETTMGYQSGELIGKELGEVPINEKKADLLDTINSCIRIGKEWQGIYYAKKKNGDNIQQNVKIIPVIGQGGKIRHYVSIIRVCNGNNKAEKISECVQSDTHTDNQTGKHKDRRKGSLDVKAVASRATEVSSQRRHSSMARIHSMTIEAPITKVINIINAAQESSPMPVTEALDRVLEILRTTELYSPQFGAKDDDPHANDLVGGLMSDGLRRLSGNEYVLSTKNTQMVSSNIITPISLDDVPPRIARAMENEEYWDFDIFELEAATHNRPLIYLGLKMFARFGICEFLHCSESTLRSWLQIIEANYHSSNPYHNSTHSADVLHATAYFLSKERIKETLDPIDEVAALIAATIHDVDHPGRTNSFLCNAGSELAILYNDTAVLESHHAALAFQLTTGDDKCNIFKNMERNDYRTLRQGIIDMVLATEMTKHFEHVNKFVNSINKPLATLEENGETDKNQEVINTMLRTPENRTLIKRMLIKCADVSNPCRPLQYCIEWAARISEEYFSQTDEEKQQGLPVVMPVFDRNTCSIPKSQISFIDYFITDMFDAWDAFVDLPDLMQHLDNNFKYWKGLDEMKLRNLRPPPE
3',5'-cyclic-AMP phosphodiesterase 7B, sequence (Q9NP56 whole entry): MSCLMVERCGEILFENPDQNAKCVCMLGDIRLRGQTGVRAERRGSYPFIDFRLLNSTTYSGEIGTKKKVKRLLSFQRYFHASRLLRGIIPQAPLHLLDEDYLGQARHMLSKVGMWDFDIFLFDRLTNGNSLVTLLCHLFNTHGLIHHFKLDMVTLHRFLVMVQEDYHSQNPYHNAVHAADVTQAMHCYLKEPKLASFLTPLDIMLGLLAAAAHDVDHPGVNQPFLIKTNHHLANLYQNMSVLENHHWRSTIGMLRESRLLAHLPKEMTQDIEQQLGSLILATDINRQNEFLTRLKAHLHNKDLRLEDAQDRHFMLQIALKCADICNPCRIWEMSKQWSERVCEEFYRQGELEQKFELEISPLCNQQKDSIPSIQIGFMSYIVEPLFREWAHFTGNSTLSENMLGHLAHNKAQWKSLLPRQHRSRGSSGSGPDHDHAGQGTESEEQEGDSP

Compound: COc1cc(-c2n[nH]c(=O)o2)ccc1-c1nc2c(C)nn(C3CCCCC3)c(=O)c2[nH]1
IC50 [1]: 68 nM

Compound: O=C(CCCN1CCC(O)(c2ccc(Cl)cc2)CC1)c1ccc(F)cc1 [HALOPERIDOL]
Activity (Mus musculus [2]): Dose-dependent effect

Compound: NC(CO)C(=O)NNCc1ccc(O)c(O)c1O (centres undefined)
Activity (Mus musculus [3]): Active

Compound: COc1cc(N2CCCN(C(C)=O)CC2)ccc1-c1nc2c(C)nn(C3CCCCC3)c(=O)c2[nH]1
IC50 [1]: 32 nM

Compound: COc1cc(N2CCC(N)CC2)ccc1-c1nc2c(C)nn(C3CCN(C)CC3)c(=O)c2[nH]1
inhibition [4]: 7%

Compound: N[C@@H](Cc1ccc(O)c(O)c1)C(=O)O
Activity (Mus musculus [24]): Active

Now from value to compound:

IC50 [1]: 73 nM
Compound: COc1cc(N2CC(N)C2)ccc1-c1nc2c(C)nn(C3CCCCC3)c(=O)c2[nH]1

IC50 [1]: 80 nM
Compound: COc1cc(N2CC[C@H](N)C2)ccc1-c1nc2c(C)nn(C3CCCCC3)c(=O)c2[nH]1

IC50 [1]: 3 nM
Compound: COc1cc(C2CC2C(N)=O)ccc1-c1nc2c(C)nn(C3CCCCC3)c(=O)c2[nH]1 (centres undefined)

IC50 [1]: 55 nM
Compound: COc1cc(O[C@@H]2CCNC2)ccc1-c1nc2c(C)nn(C3CCCCC3)c(=O)c2[nH]1

IC50 [1]: 71 nM
Compound: COc1cc(N2CCC(O)C2)ccc1-c1nc2c(C)nn(C3CCCCC3)c(=O)c2[nH]1 (centres undefined)

IC50 [1]: 18 nM
Compound: COc1cc(N2CCNC(=O)C2)ccc1-c1nc2c(C)nn(C3CCCCC3)c(=O)c2[nH]1

remaining at 1 h [5]: 100%
concentration at 0.5 h [6]: 46 ng/g
Kp at 0.5 h [7]: 0.1
inhibition [8]: 6%
inhibition [9]: 16%
inhibition [10]: 2%
IC50 [1]: 27 nM
Tmax [11]: 4 h
inhibition [12]: 44%
Cmax [13]: 902 ng/mL
inhibition [14]: 81%
remaining at 1 h [15]: 44%
inhibition [4]: 96%
concentration at 0.5 h [16]: 451 ng/mL
inhibition [17]: 40%
AUC [18]: 2300 ng·h/mL
inhibition [19]: 32%
inhibition [20]: 40%
IC50 [21]: 11 nM
remaining at 1 h [22]: 100%
inhibition [23]: 9%
Compound: COc1cc(N2CCC(N)CC2)ccc1-c1nc2c(C)nn(C3CCCCC3)c(=O)c2[nH]1

inhibition [4]: 89%
Compound: COc1cc(N2CCC(N)CC2)ccc1-c1nc2c(C)nn(C3CCCC3)c(=O)c2[nH]1
